Results: US5098935A, “Carcinostatic or antitumor antibiotic, conagenin, and production and uses thereof” (Zaidan Hojin Biseibutsu Kagaku Kenkyu Kai, priority 1989, dated 1992)
“Also recorded” adds a separate entry of the source.

Key:
Solubility = type: physicochemical
[1] = system: Ehrlich's solid carcinoma; assay: Inhibitory activity on Ehrlich's solid carcinoma in mice; type: in vivo, mice (ICR, female); conditions: for Percent inhibition (decrease in weight of solid carcinoma vs untreated control): once a day for 7 days from 7th day, weighed on 15th day
Experimental: (2) Inhibitory activity on Ehrlich's solid carcinoma in mice ICR mice (female, 6 weeks-aged, 4 mice in each group) were inoculated with Ehrlich's ascites carcinoma cells (2×10^6 per mouse in the form of a cell suspension) subcutaneously at the groin of the mice. After the 7th day from the inoculation of the carcinoma cells, an injectable solution of Conagenin was intraperitoneally injected into the carcinoma-bearing mice at a dosage of 6.25, 3.1, 1.56, 0.78, 0.39 and 0.195 mg/Kg once a day during the consecutive 7 days for each group of mice. On the 15th day from the inoculation of the carcinoma cells, the solid carcinoma so grown was cut off and the weight of the solid carcinoma was determined. Control test was conducted using 8 mice of the same type as above in a usual manner. Percent inhibition of the proliferation of the solid carcinoma, i.e. the percent decrease in the weight of the solid carcinoma in each treated group of mice administered with Conagenin as compared to that in the control group of mice (untreated), is callculated and shown in Table 3 below.

Acidic nature = type: physicochemical
[2] = Acute toxicity (LD50), intraperitoneal administration to female ICR mice; conditions: mouse, in vivo
Experimental: Toxicity of Conagenin was tested by intraperitoneal administration to female ICR mice and estimated as its LD50 being higher than 50 mg/Kg.

Leukemia L1210 cells = assay: Effect on the surface of carcinoma cell membrane: binding of radiolabelled Concanavalin A to Leukemia L1210 cells; type: cell-based
Experimental: Each of the resulting suspensions was incubated in a CO2 -incubator (CO2 concentration:5%) at 37° C. for 2 days. A radioisotope-labelled Concanavalin A (Concanavalin A N-[acetyl-^3 H] acetylated; a product of Amersham Co., Ltd.) in an amount of 40 nCi/ml was added to the suspension under incubation at a time of one hour before the end of the incubation. The incubated cells were fixed on a filter paper by a cell harvester and the radioactivity value of the cells so fixed was measured by a liquid scintillation counter. The respective values thus given were converted assumed that the radioactivity value of the control group sample was amounting to 100, and the converted values are shown in Table 4 as the increase in binding of Concanavalin A to L1210 cells.

In the case of `CC(O)C(C)C(O)C(=O)NC(C)(CO)C(=O)O` (centres unmarked) [Conagenin], the Solubility in chloroform (Solubility; chloroform) is reported as “insoluble; also recorded: sparingly soluble”, the Solubility in methanol (Solubility; methanol) is reported as “readily soluble; also recorded: Easily soluble” and the Solubility in water (Solubility; water) is reported as “soluble in water”. For the same compound, the “Percent inhibition (decrease in weight of solid carcinoma vs untreated control)” value ([1]; 0.195 mg/Kg/day i.p.) was 44%, the “Percent inhibition (decrease in weight of solid carcinoma vs untreated control)” value ([1]; 0.39 mg/Kg/day i.p.) was 29% and the “Percent inhibition (decrease in weight of solid carcinoma vs untreated control)” value ([1]; 0.78 mg/Kg/day i.p.) was 58%. For the same compound, the “Percent inhibition (decrease in weight of solid carcinoma vs untreated control)” value ([1]; 1.56 mg/Kg/day i.p.) was 44%, the “Percent inhibition (decrease in weight of solid carcinoma vs untreated control)” value ([1]; 3.1 mg/Kg/day i.p.) was 67% and the “Percent inhibition (decrease in weight of solid carcinoma vs untreated control)” value ([1]; 6.25 mg/Kg/day i.p.) was 45%. The “carcinostatic or antitumor activity in vivo (in words)” value ([1]; Ehrlich's solid carcinoma in mice) was “significant carcinostatic or antitimor activity; also recorded: significant carcinostatic or antitumor activity in vivo”, the “acidity (in words)” value (Acidic nature) was “weakly acidic” and the “toxicity (in words)” value [2] was “low toxicity”. The LD50 ([2]; ip, intraperitoneal, female ICR mice) was > 50 mg/kg, the “binding of Concanavalin A to L1210 cells (in words)” value (Leukemia L1210 cells) was “could increase the binding of Concanavalin A to L1210 cells” and the activity at 0.25 µg/mL (Leukemia L1210 cells; Mus musculus, L1210, 48 h, 0.25 μg/ml, 37° C., 2 days, control group = 100, read-out: Increase in binding of Concanavalin A) was < 100%. For the same compound, the activity at 0.5 µg/mL (Leukemia L1210 cells; Mus musculus, L1210, 48 h, 0.5 μg/ml, 37° C., 2 days, control group = 100, read-out: Increase in binding of Concanavalin A) was 129% and the activity at 1 µg/mL (Leukemia L1210 cells; Mus musculus, L1210, 48 h, 1.0 μg/ml, 37° C., 2 days, control group = 100, read-out: Increase in binding of Concanavalin A) was 121%.
